ChEMBL document CHEMBL5113559, “From Oxetane to Thietane: Extending the Antiviral Spectrum of 2'-Spirocyclic Uridines by Substituting Oxygen with Sulfur” (ACS Med Chem Lett, 2022)

Columns and labels:
[1] = Cytotoxicity against human Huh-7 cells measured after 2 days by ATPLite-based viability assay; assay type: toxicity, cell-based; conditions: time 2 day
Hepatitis C virus = assay: Antiviral activity against HCV genotype 1b infected in human Huh7 cells incubated for 3 days and measured by luciferase reporter gene assay; assay type: functional, organism-based, Hepacivirus hominis; conditions: subtype 1b, Huh-7, 72 h
Chikungunya virus = assay: Antiviral activity against CHIKV S27 infected in human Huh-7 cells at MOI of 0.25 incubated for 2 days and measured by ATPLite assay; assay type: functional, organism-based; conditions: S27, Huh-7, 48 h
dengue virus type 2 = assay: Antiviral activity against DENV2 16681 infected in human Huh-7 cells assessed as reduction in viral replication at MOI of 1 to 5 incubated for 3 days; assay type: functional, organism-based; conditions: Dengue virus, 16681, Huh-7, 72 h
[2] = Tmax in male C57BL/6 mouse at 50 mg/kg, sc measured by LC-MS/MS analysis; assay type: ADME, organism-based; conditions: in vivo
[3] = Tlast in male C57BL/6 mouse at 50 mg/kg, po measured by LC-MS/MS analysis; assay type: ADME, organism-based; conditions: in vivo
[4] = Tlast in male C57BL/6 mouse at 50 mg/kg, sc measured by LC-MS/MS analysis; assay type: ADME, organism-based; conditions: in vivo
[5] = Metabolic stability in human liver microsomes assessed as intrinsic clearance preincubated for 5 mins followed by addition of NADPH and assessed as intrinsic clearance by LC-MS/MS analysis; assay type: ADME, Microsome; conditions: read-out: CLH
Sindbis virus = assay: Antiviral activity against SINV AR339 infected in human Huh-7 cells measured by cytopathic effect inhibition assay; assay type: functional, organism-based; conditions: AR339, Huh-7
[6] = Cmax in male C57BL/6 mouse at 50 mg/kg, sc measured by LC-MS/MS analysis; assay type: ADME, organism-based; parameters: dose 50 mg/kg, route sc; conditions: in vivo
[7] = Metabolic stability in mouse liver microsomes preincubated for 5 mins followed by addition of NADPH and assessed as intrinsic clearance by LC-MS/MS analysis; assay type: ADME, Microsome; conditions: read-out: CLH
[8] = AUClast in male C57BL/6 mouse at 50 mg/kg, po measured by LC-MS/MS analysis; assay type: ADME, organism-based; conditions: in vivo
[9] = Tmax in male C57BL/6 mouse at 50 mg/kg, po measured by LC-MS/MS analysis; assay type: ADME, organism-based; conditions: in vivo
[10] = Stability of compound in fasted state simulated intestinal fluid incubated for 6 hrs and assessed as half-life at 1 uM by LC-MS/MS analysis; assay type: ADME
[11] = Stability of compound in human plasma assessed as half-life incubated for 24 hrs and assessed as half-life at 1 uM by LC-MS/MS analysis; assay type: ADME, cell-free
[12] = Stability of compound in simulated gastric fluid incubated for 6 hrs and assessed as half-life at 1 uM by LC-MS/MS analysis; assay type: ADME
[13] = Cmax in male C57BL/6 mouse at 50 mg/kg, po measured by LC-MS/MS analysis; assay type: ADME, organism-based; parameters: dose 50 mg/kg, route po; conditions: in vivo
[14] = Stability of compound in simulated gastric fluid incubated for 6 hrs at 1 uM and assessed as compound remaining after 6 hrs by LC-MS/MS analysis; assay type: ADME; conditions: read-out: Stability
[15] = Stability of compound in mouse plasma assessed as half-life incubated for 24 hrs and assessed as half-life at 1 uM by LC-MS/MS analysis; assay type: ADME, cell-free
[16] = AUClast in male C57BL/6 mouse at 50 mg/kg, sc measured by LC-MS/MS analysis; assay type: ADME, organism-based; conditions: in vivo

Row | SMILES | CC50 at 48 h [1] | EC50 (Hepatitis C virus) | EC50 (Chikungunya virus) | EC50 (dengue virus type 2) | EC50 (Sindbis virus) | further results
1 | CC(C)OC(=O)[C@H](C)NP(=O)(OC[C@H]1O[C@@H](n2ccc(=O)[nH]c2=O)[C@@]2(CCO2)[C@@H]1O)Oc1ccccc1 (stereo partly specified) | > 100 µM | 21.4 µM | > 100 µM | > 50 µM | – | –
2 | CC(C)OC(=O)[C@H](C)NP(=O)(OC[C@H]1O[C@@H](n2ccc(=O)[nH]c2=O)[C@@]2(CCS2)[C@@H]1O)Oc1ccccc1 (stereo partly specified) | > 100 µM | 1.17 µM | 22.4 µM | 26.1 µM | – | –
3 | CC(C)OC(=O)[C@H](C)NP(=O)(OC[C@@]1(F)O[C@@H](n2ccc(=O)[nH]c2=O)[C@@]2(CCO2)[C@@H]1O)Oc1ccccc1 (stereo partly specified) | > 100 µM | > 100 µM | > 100 µM | > 100 µM | – | –
4 | CC(C)OC(=O)[C@H](C)NP(=O)(OC[C@@]1(F)O[C@@H](n2ccc(=O)[nH]c2=O)[C@@]2(CCS2)[C@@H]1O)Oc1ccccc1 (stereo partly specified) | > 100 µM | 2.58 µM | 3.25 µM | 28.3 µM | 6.19 µM | Tmax [2]: 2 h; Tlast [3]: 7 h; Tlast [4]: 7 h; microsomal CLint [5]: > 347 µL/min/mg; Cmax [6]: 2060 ng/mg; microsomal CLint [7]: > 347 µL/min/mg; AUClast [8]: 3050 ng·h/g; Tmax [9]: 2 h; half-life at 1 µM [10]: 0.2 h; half-life at 1 µM [11]: > 30 h; half-life at 1 µM [12]: > 6 h; Cmax [13]: 637 ng/mg; remaining at 6 h, 1 µM [14]: 93%; half-life at 1 µM [15]: < 0.4 h; AUClast [16]: 10000 ng·h/g
5 | CC(C)OC(=O)[C@H](C)N[P@@](=O)(OC[C@@]1(F)O[C@@H](n2ccc(=O)[nH]c2=O)[C@@]2(CCS2)[C@@H]1O)Oc1ccccc1 | > 100 µM | 2.2 µM | 3.18 µM | 29.3 µM | 5.82 µM | –
6 | CC(C)OC(=O)[C@H](C)N[P@](=O)(OC[C@@]1(F)O[C@@H](n2ccc(=O)[nH]c2=O)[C@@]2(CCS2)[C@@H]1O)Oc1ccccc1 | > 100 µM | 2.1 µM | 4.6 µM | 42 µM | 5.93 µM | –
7 | CC(C)OC(=O)C(C)NP(=O)(OC[C@@]1(N=[N+]=[N-])O[C@@H](n2ccc(=O)[nH]c2=O)[C@@]2(CCS2)[C@@H]1O)Oc1ccccc1 (single isomer, unassigned) | > 100 µM | 2.8 µM | > 100 µM | > 100 µM | – | –
8 | CCCCOC(=O)C(C)NP(=O)(OC[C@@]1(F)O[C@@H](n2ccc(=O)[nH]c2=O)[C@@]2(CCS2)[C@@H]1O)Oc1ccccc1 (single isomer, unassigned) | > 100 µM | 1.92 µM | 2.87 µM | 29 µM | 4.64 µM | –
